One block for each compound: values may come before it.
Tests used:
[1] = Solubility of compound in PBS at pH 7.4 incubated for 4 hrs under shaking condition by UV absorbance based analysis; type: physicochemical
[2] = Solubility of compound in PBS at pH 9 incubated for 4 hrs under shaking condition by UV absorbance based analysis; type: physicochemical
[3] = Solubility of compound in PBS at pH 2 incubated for 4 hrs under shaking condition by UV absorbance based analysis; type: physicochemical
CYP2D6 = CYP2D6 (Homo sapiens, UniProt P10635); assay: Inhibition of recombinant human CYP2D6 at 25 uM by fluorescence plate reader analysis; type: ADME
CYP1A2 = target: T1, CYP1A2 (Homo sapiens, UniProt P05177); assay: Inhibition of recombinant human CYP1A2 at 25 uM by fluorescence plate reader analysis; type: ADME
T1 sequence (P05177 whole entry): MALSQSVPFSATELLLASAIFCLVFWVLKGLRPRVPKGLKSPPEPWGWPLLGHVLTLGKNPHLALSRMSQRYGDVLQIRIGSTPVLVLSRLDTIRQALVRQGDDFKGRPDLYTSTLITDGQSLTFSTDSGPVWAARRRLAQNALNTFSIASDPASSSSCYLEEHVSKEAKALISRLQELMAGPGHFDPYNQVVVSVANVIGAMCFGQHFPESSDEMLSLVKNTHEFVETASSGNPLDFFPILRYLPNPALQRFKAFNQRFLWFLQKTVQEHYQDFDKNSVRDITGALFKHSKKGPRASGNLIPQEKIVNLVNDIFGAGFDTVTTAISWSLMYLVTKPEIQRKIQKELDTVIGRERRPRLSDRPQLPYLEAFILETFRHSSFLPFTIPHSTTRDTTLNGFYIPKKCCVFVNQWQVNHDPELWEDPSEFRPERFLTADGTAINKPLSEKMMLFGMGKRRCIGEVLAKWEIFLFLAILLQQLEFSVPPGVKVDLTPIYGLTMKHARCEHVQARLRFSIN

CYP3A4 = CYP3A4 (Homo sapiens, UniProt P08684); assay: Inhibition of recombinant human CYP3A4 at 25 uM by fluorescence plate reader analysis; type: ADME
[4] = Solubility of compound in PBS at pH 4 incubated for 4 hrs under shaking condition by UV absorbance based analysis; type: physicochemical
[5] = target: T2, Diacylglycerol O-acyltransferase 1 (Homo sapiens, UniProt O75907); assay: Inhibition of human DGAT1 in serum starved HEK293 cells assessed as inhibition of triglyceride synthesis incubated for 20 mins followed by 13C-addition of 13C-oleic acid pre-complexed with BSA for 120 mins by LC-MS-based mass spectrophotometric analysis; type: cell-based
T2 sequence (O75907 whole entry): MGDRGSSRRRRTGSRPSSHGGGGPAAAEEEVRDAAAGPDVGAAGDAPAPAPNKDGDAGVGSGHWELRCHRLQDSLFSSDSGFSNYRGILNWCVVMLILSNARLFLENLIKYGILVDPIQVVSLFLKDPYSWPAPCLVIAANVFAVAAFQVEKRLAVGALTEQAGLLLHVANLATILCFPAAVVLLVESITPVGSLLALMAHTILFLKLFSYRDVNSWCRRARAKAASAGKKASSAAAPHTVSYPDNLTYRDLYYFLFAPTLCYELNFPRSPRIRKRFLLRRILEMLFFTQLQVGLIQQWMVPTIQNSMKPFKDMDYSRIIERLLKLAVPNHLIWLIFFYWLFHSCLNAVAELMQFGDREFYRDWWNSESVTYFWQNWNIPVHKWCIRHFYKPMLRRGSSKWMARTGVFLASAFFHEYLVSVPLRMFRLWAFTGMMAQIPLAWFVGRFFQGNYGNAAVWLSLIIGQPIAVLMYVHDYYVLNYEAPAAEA

[6] = Half life in Wistar rat at 3 mg/kg, iv or 10 mg/kg, po and measured up to 24 hrs by LC-MS/MS analysis; type: ADME, organism-based; details: in vivo
[7] = Drug distribution in C57BL/6 mouse skeletal muscle 10 mg/kg, po and measured at 1 hrs post dose by LC-MS/MS analysis; type: ADME, organism-based, Skeletal muscle tissue; details: read-out: Ct
hERG (KCNH2) = hERG (KCNH2) (Homo sapiens, UniProt Q12809); assay: Displacement of [3H]astemizole from human ERG expressed in HEK293 cell membrane at 30 uM for 2 hrs by Radiometric displacement assay; type: toxicity; details: HEK293 cell membranes that express hERG, probe [3H]astemizole
[8] = Drug distribution in C57BL/6 mouse liver 10 mg/kg, po and measured at 8 hrs post dose by LC-MS/MS analysis; type: ADME, organism-based; details: read-out: Ct
[9] = AUC in C57BL/6 mouse at 3 mg/kg, iv or 10 mg/kg, po and measured up to 24 hrs by LC-MS/MS analysis; type: ADME, organism-based; parameters: time < 24 hrs, dose 3 mg/kg, route iv; details: in vivo
[10] = Half life in C57BL/6 mouse at 3 mg/kg, iv or 10 mg/kg, po and measured up to 24 hrs by LC-MS/MS analysis; type: ADME, organism-based; details: in vivo
[11] = Cmax in Wistar rat at 3 mg/kg, iv or 10 mg/kg, po and measured up to 24 hrs by LC-MS/MS analysis; type: ADME, organism-based; parameters: dose 3 mg/kg, time < 24 hrs, route iv; details: in vivo
[12] = Drug distribution in C57BL/6 mouse plasma 10 mg/kg, po and measured at 2 hrs post dose by LC-MS/MS analysis; type: ADME, organism-based
[13] = Oral bioavailability in C57BL/6 mouse 10 mg/kg or 3 mg/kg, iv and measured up to 24 hrs by LC-MS/MS analysis; type: ADME, organism-based; details: in vivo
[14] = Drug distribution in C57BL/6 mouse liver 10 mg/kg, po and measured at 2 hrs post dose by LC-MS/MS analysis; type: ADME, organism-based; details: read-out: Ct
[15] = Tmax in Wistar rat at 3 mg/kg, iv or 10 mg/kg, po and measured up to 24 hrs by LC-MS/MS analysis; type: ADME, organism-based; details: in vivo
[16] = Drug distribution in C57BL/6 mouse skeletal muscle 10 mg/kg, po and measured at 2 hrs post dose by LC-MS/MS analysis; type: ADME, organism-based, Skeletal muscle tissue; details: read-out: Ct
[17] = Metabolic stability in mouse liver microsomes assessed as parent compound remaining at 1 uM and measured at 30 mins by LC-MS/MS analysis; type: ADME, Microsome; details: read-out: Stability
[18] = Drug distribution in C57BL/6 mouse adipose tissue 10 mg/kg, po and measured at 1 hrs post dose by LC-MS/MS analysis; type: ADME, organism-based; details: read-out: Ct
[19] = Metabolic stability in rat liver microsomes assessed as parent compound remaining at 1 uM and measured at 30 mins by LC-MS/MS analysis; type: ADME, Microsome; details: read-out: Stability
[20] = Drug distribution in C57BL/6 mouse adipose tissue 10 mg/kg, po and measured at 8 hrs post dose by LC-MS/MS analysis; type: ADME, organism-based; details: read-out: Ct
[21] = Plasma protein binding in rat; type: ADME, cell-free; details: read-out: PPB
[22] = Volume of distribution at steady state in Wistar rat at 3 mg/kg, iv or 10 mg/kg, po and measured up to 24 hrs by LC-MS/MS analysis; type: ADME, organism-based; details: in vivo, read-out: Vdss
[23] = Oral bioavailability in Wistar rat at 10 mg/kg or 3 mg/kg, iv and measured up to 24 hrs by LC-MS/MS analysis; type: ADME, organism-based; details: in vivo
[24] = Metabolic stability in human liver microsomes assessed as parent compound remaining at 1 uM and measured at 30 mins by LC-MS/MS analysis; type: ADME, Microsome; details: read-out: Stability
[25] = Tmax in C57BL/6 mouse at 3 mg/kg, iv or 10 mg/kg, po and measured up to 24 hrs by LC-MS/MS analysis; type: ADME, organism-based; details: in vivo
[26] = Drug distribution in C57BL/6 mouse skeletal muscle 10 mg/kg, po and measured at 8 hrs post dose by LC-MS/MS analysis; type: ADME, organism-based, Skeletal muscle tissue; details: read-out: Ct
[27] = Clearance in C57BL/6 mouse at 3 mg/kg, iv or 10 mg/kg, po and measured up to 24 hrs by LC-MS/MS analysis; type: ADME, organism-based; details: in vivo
[28] = Volume of distribution at steady state in C57BL/6 mouse at 3 mg/kg, iv or 10 mg/kg, po and measured up to 24 hrs by LC-MS/MS analysis; type: ADME, organism-based; details: in vivo, read-out: Vdss
[29] = Drug distribution in C57BL/6 mouse plasma 10 mg/kg, po and measured at 8 hrs post dose by LC-MS/MS analysis; type: ADME, organism-based
[30] = Apparent permeability across apical to basolateral side in MDCK cells at 2.5 uM for 90 mins; type: ADME, cell-based, Canis lupus familiaris; details: dog
[31] = Drug distribution in C57BL/6 mouse plasma 10 mg/kg, po and measured at 1 hrs post dose by LC-MS/MS analysis; type: ADME, organism-based
[32] = Drug distribution in C57BL/6 mouse liver 10 mg/kg, po and measured at 1 hrs post dose by LC-MS/MS analysis; type: ADME, organism-based; details: read-out: Ct
[33] = AUC in Wistar rat at 3 mg/kg, iv or 10 mg/kg, po and measured up to 24 hrs by LC-MS/MS analysis; type: ADME, organism-based; parameters: dose 3 mg/kg, time < 24 hrs, route iv; details: in vivo
[34] = Drug distribution in C57BL/6 mouse brain 10 mg/kg, po and measured at 1 hrs post dose by LC-MS/MS analysis; type: ADME, organism-based; details: read-out: Ct
[35] = Plasma protein binding in mouse; type: ADME, cell-free; details: read-out: PPB (converted)
[36] = Cmax in C57BL/6 mouse at 3 mg/kg, iv or 10 mg/kg, po and measured up to 24 hrs by LC-MS/MS analysis; type: ADME, organism-based; parameters: dose 3 mg/kg, time < 24 hrs, route iv; details: in vivo
[37] = Clearance in Wistar rat at 3 mg/kg, iv or 10 mg/kg, po and measured up to 24 hrs by LC-MS/MS analysis; type: ADME, organism-based; details: in vivo
[38] = Drug distribution in C57BL/6 mouse adipose tissue 10 mg/kg, po and measured at 2 hrs post dose by LC-MS/MS analysis; type: ADME, organism-based; details: read-out: Ct

Chain of CYP2D6 (P10635 whole entry): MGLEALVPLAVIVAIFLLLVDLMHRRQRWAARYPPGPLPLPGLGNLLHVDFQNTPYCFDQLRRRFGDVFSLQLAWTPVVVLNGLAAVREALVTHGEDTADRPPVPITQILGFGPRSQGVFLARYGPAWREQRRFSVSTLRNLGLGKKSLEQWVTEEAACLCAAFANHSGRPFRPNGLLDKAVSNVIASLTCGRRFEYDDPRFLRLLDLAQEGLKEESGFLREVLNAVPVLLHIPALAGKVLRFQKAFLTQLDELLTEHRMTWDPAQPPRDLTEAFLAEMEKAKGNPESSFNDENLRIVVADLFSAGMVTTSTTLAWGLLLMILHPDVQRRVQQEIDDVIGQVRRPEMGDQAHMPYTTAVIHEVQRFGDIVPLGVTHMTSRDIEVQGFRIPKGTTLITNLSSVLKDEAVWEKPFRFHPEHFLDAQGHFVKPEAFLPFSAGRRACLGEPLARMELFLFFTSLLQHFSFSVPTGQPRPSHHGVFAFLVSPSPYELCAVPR
Chain of CYP3A4 (P08684 whole entry): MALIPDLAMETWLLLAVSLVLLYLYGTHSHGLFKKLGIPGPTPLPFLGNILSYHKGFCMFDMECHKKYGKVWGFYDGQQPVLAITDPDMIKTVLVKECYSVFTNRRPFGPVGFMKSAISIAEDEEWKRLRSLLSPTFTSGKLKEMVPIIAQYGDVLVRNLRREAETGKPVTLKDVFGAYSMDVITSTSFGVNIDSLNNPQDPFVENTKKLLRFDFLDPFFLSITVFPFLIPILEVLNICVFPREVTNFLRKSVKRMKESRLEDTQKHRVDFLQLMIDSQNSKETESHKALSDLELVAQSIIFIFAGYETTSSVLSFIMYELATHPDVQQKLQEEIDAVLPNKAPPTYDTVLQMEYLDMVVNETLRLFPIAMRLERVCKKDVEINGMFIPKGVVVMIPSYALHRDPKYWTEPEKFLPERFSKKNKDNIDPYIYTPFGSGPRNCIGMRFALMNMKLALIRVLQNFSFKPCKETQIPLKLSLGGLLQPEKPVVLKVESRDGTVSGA
Chain of hERG (KCNH2) (Q12809 whole entry): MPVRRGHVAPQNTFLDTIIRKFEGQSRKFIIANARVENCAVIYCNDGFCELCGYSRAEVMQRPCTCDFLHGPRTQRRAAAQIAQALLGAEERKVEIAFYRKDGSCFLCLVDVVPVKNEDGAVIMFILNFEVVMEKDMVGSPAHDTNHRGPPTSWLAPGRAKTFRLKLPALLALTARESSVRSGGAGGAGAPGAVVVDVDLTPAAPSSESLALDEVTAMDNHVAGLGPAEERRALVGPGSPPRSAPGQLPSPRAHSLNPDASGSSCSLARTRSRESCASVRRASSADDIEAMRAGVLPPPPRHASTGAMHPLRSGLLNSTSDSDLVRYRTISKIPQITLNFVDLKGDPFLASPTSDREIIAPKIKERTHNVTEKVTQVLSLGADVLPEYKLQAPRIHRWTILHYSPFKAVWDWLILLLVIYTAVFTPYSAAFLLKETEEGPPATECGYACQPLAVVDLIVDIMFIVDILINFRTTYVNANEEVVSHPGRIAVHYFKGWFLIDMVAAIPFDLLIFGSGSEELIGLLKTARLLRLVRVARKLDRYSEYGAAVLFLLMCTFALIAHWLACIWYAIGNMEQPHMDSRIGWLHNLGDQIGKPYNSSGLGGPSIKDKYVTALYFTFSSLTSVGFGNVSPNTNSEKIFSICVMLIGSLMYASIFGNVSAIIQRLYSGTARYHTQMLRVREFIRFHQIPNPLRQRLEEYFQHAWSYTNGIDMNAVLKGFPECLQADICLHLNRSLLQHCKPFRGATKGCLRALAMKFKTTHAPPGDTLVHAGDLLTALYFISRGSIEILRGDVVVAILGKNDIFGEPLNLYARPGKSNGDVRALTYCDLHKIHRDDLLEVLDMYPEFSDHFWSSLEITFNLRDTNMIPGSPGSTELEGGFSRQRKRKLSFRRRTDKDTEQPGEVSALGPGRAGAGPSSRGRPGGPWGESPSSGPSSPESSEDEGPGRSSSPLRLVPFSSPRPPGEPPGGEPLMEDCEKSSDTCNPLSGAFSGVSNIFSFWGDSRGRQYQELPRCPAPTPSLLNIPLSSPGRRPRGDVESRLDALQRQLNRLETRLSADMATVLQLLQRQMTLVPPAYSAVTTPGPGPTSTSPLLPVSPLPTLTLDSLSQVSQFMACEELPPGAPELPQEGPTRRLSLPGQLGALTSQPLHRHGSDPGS

solubility at 4 h [1]: < 6 µM
solubility at 4 h [2]: 9 µM
solubility at 4 h [3]: < 6 µM
inhibition at 25 µM (CYP2D6): 5%
inhibition at 25 µM (CYP1A2): 13%
inhibition at 25 µM (CYP3A4): 17%
solubility at 4 h [4]: < 6 µM
SMILES: O=C([O-])CC1CCC2(CC1)CCC(c1ccc(NC(=O)c3nnc(Nc4ccc(F)c(F)c4)o3)cn1)CC2.[Na+] (stereo not given)

solubility at 4 h [1]: 14 µM
solubility at 4 h [2]: 17 µM
solubility at 4 h [3]: 28 µM
inhibition at 25 µM (CYP2D6): 8%
inhibition at 25 µM (CYP1A2): 5%
inhibition at 25 µM (CYP3A4): 5%
solubility at 4 h [4]: 263 µM
SMILES: O=C([O-])CC1CCC2(CC1)CCC(c1ccc(NC(=O)c3nnc(Nc4ccc(F)c(F)c4)o3)cc1)CC2.[Na+] (stereo not given)

IC50 [5]: 66 nM
SMILES: O=C(O)C[C@H]1CC[C@H](c2ccc(-c3ccc(Nc4ccc(C(F)(F)F)nc4)cn3)cc2)CC1 [PRADIGASTAT]

half-life [6]: 3.6 h
concentration at 1 h [7]: 160 nM
concentration at 8 h [8]: 17800 nM
AUC at 24 h [9]: 2.8 µM·h
half-life [10]: 3.6 h
Cmax [11]: 14000 nM
concentration at 2 h [12]: 1660 nM
inhibition at 25 µM (CYP2D6): 10%
bioavailability [13]: 30%
concentration at 2 h [14]: 71600 nM
Tmax [15]: 1 h
concentration at 2 h [16]: 60 nM
remaining at 0.5 h, 1 µM [17]: 96%
concentration at 1 h [18]: 470 nM
remaining at 0.5 h, 1 µM [19]: 100%
concentration at 8 h [20]: 130 nM
fraction unbound [21]: 0.01
Vd [22]: 0.53 L/kg
bioavailability [23]: 100%
remaining at 0.5 h, 1 µM [24]: 95%
Tmax [25]: 0.25 h
concentration at 8 h [26]: 30 nM
clearance [27]: 34 mL/min/kg
Vd [28]: 4.4 L/kg
concentration at 8 h [29]: 360 nM
Papp A→B at 1.5 h, 2.5 µM [30]: 4.9 ×10⁻⁶ cm/s
concentration at 1 h [31]: 5900 nM
concentration at 1 h [32]: 142000 nM
AUC at 24 h [33]: 17 µM·h
concentration at 1 h [34]: 20 nM
fraction unbound [35]: 0.02
Cmax [36]: 1400 nM
clearance [37]: 6.2 mL/min/kg
concentration at 2 h [38]: 350 nM
SMILES: O=C(Nc1ccc(C2CCC3(CC2)CC(C(=O)O)C3)cc1)c1nnc(Nc2ccc(F)c(F)c2)o1 (stereo not given)
inhibition at 2 h, 30 µM (hERG (KCNH2)): 16%
